Like-named read-outs stand apart in the source and are kept apart here.
Assays:
[1] = Liver microsomal stability, human; type: in vitro ADME; settings: pH 7.4, 0.5 mg/mL human liver microsomes, 37 °C, read-out: Liver Microsome t½, Human
Protocol: The liver microsomal stability assay was carried out in 96-well microtiter plates. The test compounds at 5 µM and the reference compound (verapamil) at 1 µM final concentration were incubated separately at 37 °C with 0.5 mg/mL liver microsomes, with or without 1 mM NADPH in 100 mM potassium phosphate buffer, pH 7.4 with 3.3 mM MgCl2. […] At each of the time points (0, 15, 30, and 60 min), the enzymatic reaction was terminated with the addition of 150 μL of quenching solution (100% acetonitrile, 0.1% formic acid, and the internal standard), and subsequently the mixtures were vortexed vigorously for 20 min and centrifuged at 4000 rpm at 10 °C. The supernatants (80 µL) were transferred to a clean 96-well plate and analyzed via LC/MS/MS. The peak area ratios of each test compound over the internal standard were plotted against incubation time, and the t½ was calculated from the curve assuming first-order kinetics.

[2] = test system: phosphodiesterase I from Crotalus adamanteus venom (SVPD); test: in vitro; settings: pH 8
STING R232 = STING R232 (Homo sapiens, UniProt Q86WV6, H232R); test: HEK 293 STING R232 IFN-β reporter assay; type: cell-based; design: host or cells: 293T-Dual hSTING-R232 (HEK 293T derived); settings: HEK 293 STING R232 cells, digitonin dosing buffer 30 min, 20 h; mean±standard deviation; read-out: Reporter Cell Assay EC50, STING R232 IFN-β
Chain of STING R232 (Q86WV6 whole entry H232R): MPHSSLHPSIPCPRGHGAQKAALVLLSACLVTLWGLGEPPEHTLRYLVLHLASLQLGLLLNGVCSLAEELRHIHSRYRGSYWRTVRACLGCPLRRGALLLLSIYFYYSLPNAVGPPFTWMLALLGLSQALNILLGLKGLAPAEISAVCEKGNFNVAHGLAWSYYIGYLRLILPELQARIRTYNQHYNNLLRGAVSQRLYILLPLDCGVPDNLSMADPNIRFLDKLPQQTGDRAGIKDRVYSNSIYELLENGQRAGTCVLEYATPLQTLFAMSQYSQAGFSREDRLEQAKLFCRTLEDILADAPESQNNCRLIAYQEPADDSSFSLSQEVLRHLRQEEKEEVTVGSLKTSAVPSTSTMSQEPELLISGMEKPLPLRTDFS
Protocol: Assays were set up after allowing cells to adhere for 48 h. Compounds dissolved in water were serially diluted in dosing buffer containing 10 µg/mL of digitonin (MP Biomedicals, Solon, OH, USA). Media were aspirated from the cells, and 50 µL of buffer with compound was added in triplicate. […] An aliquot of 100 µL of CellTiter-Glo® (Promega, Madison, WI, USA) was added to the original plate still containing the cells, and luminescence was determined to measure viability. All readouts were measured on an Envision plate reader from Perkin Elmer. Data were analyzed using GraphPad™ Prism’s version 8.0 [Agonist] vs. response—variable slope (four parameters) model.

[3] = test system: EMT-6 murine mammary carcinoma; test: Re-challenge with EMT-6 of mice with complete CT26 tumor regression; type: in vivo, mouse; settings: Figure 5D; previously 100 μg IT × 3; EMT-6 right flank
Protocol: Ten naïve, age-matched female BALB/c mice were used as controls. […] Tumor growth was measured as described above.

primary human monocytes = test: Activation of primary human monocytes (CD83/CD86 flow cytometry); type: cell-based; settings: Monocyte, 24 h after stimulation
From the text: (§1) Frozen human PBMCs (100 × 10^6 cells) were obtained from Stem Cell Technologies (Kent, WA, USA). Monocytes were purified from PBMCs using a CD14^+ pan-monocyte-negative isolation kit and an LS column (Miltenyi Biotec, Bergisch Gladbach, Germany). Magnetically labeled non-target cells were depleted by retaining them within a MACS column in the magnetic field of a MACS Separator, while highly purified unlabeled CD1 D16^− cells were collected and used to generate dendritic cells.
The cell suspension was then incubated with a predetermined optimal concentration of the appropriate fluorescent dye-labeled monoclonal antibodies (mAbs) against human cell surface markers on ice for 30 min. The fluorescent dye-labeled mAbs against human cell surface molecules included anti-CD209, anti-CD14, anti-CD11c, anti-CD40, anti-HLA-DR, anti-CD86, and anti-CD83 (BD Biosciences, Franklin Lakes, NJ, USA or BioLegend, San Diego, CA, USA). In addition, a fixable live/dead stain (Thermo Fisher Scientific) at a dilution of 1:1000 was added to exclude dead cells. After several washes with FACS buffer, cells were resuspended in FACS buffer and analyzed on an Attune Nxt flow cytometer (Thermo Fisher Scientific) with FlowJo v10 software (BD Biosciences). An aliquot of the cells to be analyzed served as controls by using “fluorescent minus-one” to establish gates and determine the frequency of positively stained cells. Ultra-comp beads (Thermo Fisher Scientific) were used as single-stained controls to set up compensation on the flow cytometer.

[4] = test system: primary human immature dendritic cells; test: Activation of primary human immature dendritic cells (CD83/CD86 flow cytometry); type: cell-based; settings: for EC50: Homo sapiens, Dendritic cell, iDCs, 72 h after stimulation
From the text: as §1, with “cells. To obtain immature monocyte-derived dendritic cells (iMDDCs), enriched monocytes were cultured in Mo-DC differentiation medium (Miltenyi Biotec) supplemented with human IL-4 (250 IU/mL, Miltenyi Biotec) and human GM-CSF (800 IU/mL, Miltenyi Biotec) at 37 °C in a T-150 flask in a 5% CO2 humidified incubator for 5 days; fresh media was replenished every 2–3 days.” for “cells.”
[…] An aliquot of iMDDCs was also cultured in maturation media for 24–48 h and used as a control containing RPMI 1640, 10% FBS, 2 mM L-glutamine, and human TNF-α (6000 IU/mL, Miltenyi Biotec). The supernatant from the plate was frozen to assess cytokine production, and cells were analyzed via flow cytometry.
Cells were incubated with phosphate-buffered saline (PBS) containing 2% FBS and 2 mM of EDTA (FACS buffer) supplemented with 2 mg/mL of normal human IgG on ice for 15 min to block Fc receptors. The cell suspension was then incubated with a predetermined optimal concentration of the appropriate fluorescent dye-labeled monoclonal antibodies (mAbs) against human cell surface markers on ice for 30 min. The fluorescent dye-labeled mAbs against human cell surface molecules included anti-CD209, anti-CD14, anti-CD11c, anti-CD40, anti-HLA-DR, anti-CD86, and anti-CD83 (BD Biosciences, Franklin Lakes, NJ, USA or BioLegend, San Diego, CA, USA). In addition, a fixable live/dead stain (Thermo Fisher Scientific) at a dilution of 1:1000 was added to exclude dead cells. After several washes with FACS buffer, cells were resuspended in FACS buffer and analyzed on an Attune Nxt flow cytometer (Thermo Fisher Scientific) with FlowJo v10 software (BD Biosciences). An aliquot of the cells to be analyzed served as controls by using “fluorescent minus-one” to establish gates and determine the frequency of positively stained cells. Ultra-comp beads (Thermo Fisher Scientific) were used as single-stained controls to set up compensation on the flow cytometer.

CO[C@H]1[C@H]2OP(=O)(O)OC[C@@]34C[C@@H]3[C@@H](n3cnc5c(N)ncnc53)[C@H](O)[C@@H]4O[P@](=O)(S)OC[C@H]1O[C@H]2n1cnc2c(=O)[nH]c(N)nc21 [ALG-031048]
half-life at 5 µM [1]: > 8 h | remaining at 24 h [2]: 100% | EC50 (STING R232): 0.132 µM | EMT-6 tumor growth after re-challenge [3]: formed in these animals with kinetics comparable to those of naïve animals | EC50 (primary human monocytes; read-out: EC50 CD83, Monocytes): 8.1 µM | EC50 (primary human monocytes; read-out: EC50 CD86, Monocytes): 1.12 µM | EC50 ([4]; read-out: EC50 CD83, Immature Dendritic Cells): 5.3 µM | EC50 ([4]; read-out: EC50 CD86, Immature Dendritic Cells): 17.8 µM | Surface expression of CD86 and CD83 (in words) ([4]; iDCs and, to a lesser degree, monocytes, 24 and 72 h): upregulated the surface expression of CD86 and CD83

Reference: paper PMC10671074, “Tumor Regression upon Intratumoral and Subcutaneous Dosing of the STING Agonist ALG-031048 in Mouse Efficacy Models” (International Journal of Molecular Sciences, 2023)
